Reference: PMC8781450, “Isoquinoline Alkaloids as Protein Tyrosine Phosphatase Inhibitors from a Deep-Sea-Derived Fungus Aspergillus puniceus” (Marine Drugs, 2022)
Converted amounts (≈) assume the structure as drawn. Where two headings read alike, the source gives them in different places.

How the values were obtained:
[1] = target: T1, CD45 (Homo sapiens, UniProt P08575); experiment: Protein phosphatase inhibition assay, CD45
T1 sequence (P08575 26-1306): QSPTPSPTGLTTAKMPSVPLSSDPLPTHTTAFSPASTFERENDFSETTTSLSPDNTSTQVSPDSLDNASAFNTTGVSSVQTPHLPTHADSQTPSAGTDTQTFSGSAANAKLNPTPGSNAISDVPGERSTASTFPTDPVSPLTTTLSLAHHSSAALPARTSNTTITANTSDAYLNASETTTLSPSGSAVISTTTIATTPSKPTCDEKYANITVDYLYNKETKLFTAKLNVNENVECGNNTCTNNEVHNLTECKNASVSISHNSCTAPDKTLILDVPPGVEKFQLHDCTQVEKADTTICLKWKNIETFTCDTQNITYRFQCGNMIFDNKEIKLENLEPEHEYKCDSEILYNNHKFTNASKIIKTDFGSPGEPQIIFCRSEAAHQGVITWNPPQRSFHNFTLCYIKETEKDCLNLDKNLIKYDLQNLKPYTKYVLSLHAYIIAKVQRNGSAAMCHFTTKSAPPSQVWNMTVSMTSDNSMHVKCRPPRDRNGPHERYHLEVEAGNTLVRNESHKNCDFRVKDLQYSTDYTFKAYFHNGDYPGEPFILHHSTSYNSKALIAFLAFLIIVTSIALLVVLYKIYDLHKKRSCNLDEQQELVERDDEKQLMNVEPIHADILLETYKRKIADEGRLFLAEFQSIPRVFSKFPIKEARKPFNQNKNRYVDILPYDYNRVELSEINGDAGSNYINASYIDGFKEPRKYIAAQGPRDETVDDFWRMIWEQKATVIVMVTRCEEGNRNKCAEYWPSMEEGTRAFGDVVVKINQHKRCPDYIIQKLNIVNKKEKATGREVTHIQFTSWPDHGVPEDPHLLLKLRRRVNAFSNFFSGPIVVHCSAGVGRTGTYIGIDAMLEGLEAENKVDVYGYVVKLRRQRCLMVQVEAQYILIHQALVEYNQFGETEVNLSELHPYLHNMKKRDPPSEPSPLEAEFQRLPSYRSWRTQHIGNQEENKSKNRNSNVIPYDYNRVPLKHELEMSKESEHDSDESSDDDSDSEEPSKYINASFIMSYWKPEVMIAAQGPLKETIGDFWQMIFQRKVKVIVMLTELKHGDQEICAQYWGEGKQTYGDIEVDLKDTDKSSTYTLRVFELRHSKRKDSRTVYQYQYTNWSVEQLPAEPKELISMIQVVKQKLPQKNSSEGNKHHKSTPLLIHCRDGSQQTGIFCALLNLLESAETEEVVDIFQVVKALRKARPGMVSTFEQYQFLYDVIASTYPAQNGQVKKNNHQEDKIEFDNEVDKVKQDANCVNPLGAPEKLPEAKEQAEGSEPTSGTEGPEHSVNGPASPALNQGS

[2] = Cytotoxicity by CCK-8 method; assay type: cell-based; details: human, H1975 lung adenocarcinoma cells, read-out: Cytotoxicity (IC50) H1975 Cell (after 24 h)
Protocol: Cytotoxic activity was evaluated using human lung adenocarcinoma cell line H1975 by CCK-8 method. Briefly, each of the test compounds was dissolved in DMSO and further diluted to give final concentrations of 80, 40, 20, 10, 5, 2.5, and 1.25 µg/mL, respectively. H1975 cells (5 × 10^3 cells/plate) were seeded in 96-well plates and treated with compounds at the indicated concentration for 24 h, and then 10 μL CCK-8 reagent was added to each well, and the plates were incubated at 37 °C for another 4 h. Next, the optical density was measured at a wavelength of 450 nm with the Bio-Rad (Hercules, CA, USA) microplate reader. Dose–response curves were generated, and the IC50 values were calculated from the linear portion of log dose–response curves.

[3] = target: LAR (Homo sapiens, UniProt P10586); experiment: Protein phosphatase inhibition assay, LAR
[4] = target: SHP1 (Homo sapiens, UniProt P29350); experiment: Protein phosphatase inhibition assay, SHP1
[5] = target: T2, TCPTP (Homo sapiens, UniProt P17706); experiment: Protein phosphatase inhibition assay, TCPTP
T2 sequence (P17706 1-415): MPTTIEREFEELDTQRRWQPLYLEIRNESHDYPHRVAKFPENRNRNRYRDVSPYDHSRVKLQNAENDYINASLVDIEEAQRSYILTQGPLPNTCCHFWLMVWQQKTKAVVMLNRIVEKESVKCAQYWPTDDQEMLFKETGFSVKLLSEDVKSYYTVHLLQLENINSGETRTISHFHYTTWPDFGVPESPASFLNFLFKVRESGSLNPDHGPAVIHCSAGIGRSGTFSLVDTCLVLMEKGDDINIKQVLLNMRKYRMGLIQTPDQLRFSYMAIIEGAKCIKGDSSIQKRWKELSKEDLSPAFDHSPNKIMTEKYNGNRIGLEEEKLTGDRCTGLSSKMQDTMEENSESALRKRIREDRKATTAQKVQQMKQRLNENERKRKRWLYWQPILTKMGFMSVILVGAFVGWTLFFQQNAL

[6] = target: T3, PTP1B (Homo sapiens, UniProt P18031); experiment: Protein phosphatase inhibition assay, PTP1B
T3 sequence (P18031 1-435): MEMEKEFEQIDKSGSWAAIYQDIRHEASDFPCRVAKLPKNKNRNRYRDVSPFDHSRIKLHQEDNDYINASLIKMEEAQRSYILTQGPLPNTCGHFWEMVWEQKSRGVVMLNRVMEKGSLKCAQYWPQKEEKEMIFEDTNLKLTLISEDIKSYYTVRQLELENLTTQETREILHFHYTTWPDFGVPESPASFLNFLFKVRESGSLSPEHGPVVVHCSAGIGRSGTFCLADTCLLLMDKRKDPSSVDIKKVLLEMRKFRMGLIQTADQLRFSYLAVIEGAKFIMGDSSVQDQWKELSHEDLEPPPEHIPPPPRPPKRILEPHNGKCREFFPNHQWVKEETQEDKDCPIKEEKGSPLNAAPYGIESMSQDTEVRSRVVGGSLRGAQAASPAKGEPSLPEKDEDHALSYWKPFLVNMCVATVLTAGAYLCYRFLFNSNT

[7] = system: Escherichia coli; experiment: Antibacterial 2-fold dilution assay, E. coli; details: 12 h, read-out: MIC, Escherichia coli
Protocol: (§1) Antibacterial activities of 1–14 against E. coli, S. aureus and MRSA were evaluated using the 2-fold dilution assay in 96-microwell plates. Briefly, all the indicator bacteria were cultured on Luria−Bertani (LB) agar plates at 37 °C for 12 h, and then a single colony was picked into LB liquid medium and cultivated on a rotary shaker at 37 °C for 12 h. Then, the bacterial suspensions with LB medium were diluted until the difference of the OD600 values between the bacterial suspensions and the medium was 0.01~0.02. […] The 96-well plates were incubated at 37 °C for 12 h. MIC value was determined as the lowest concentration with no visible bacterial growth. Ampicillin was used as the positive control and DMSO as the negative control. All experiments were performed three times.

[8] = system: methicillin-resistant S. aureus (MRSA); experiment: Antibacterial 2-fold dilution assay, MRSA; details: Staphylococcus aureus, 12 h, read-out: MIC, methicillin-resistant S. aureus (MRSA)
Protocol: as §1

[9] = system: Staphylococcus aureus; experiment: Antibacterial 2-fold dilution assay, S. aureus; details: 12 h, read-out: MIC, Staphylococcus aureus
Protocol: as §1

Sequence of SHP1 (P29350 whole entry): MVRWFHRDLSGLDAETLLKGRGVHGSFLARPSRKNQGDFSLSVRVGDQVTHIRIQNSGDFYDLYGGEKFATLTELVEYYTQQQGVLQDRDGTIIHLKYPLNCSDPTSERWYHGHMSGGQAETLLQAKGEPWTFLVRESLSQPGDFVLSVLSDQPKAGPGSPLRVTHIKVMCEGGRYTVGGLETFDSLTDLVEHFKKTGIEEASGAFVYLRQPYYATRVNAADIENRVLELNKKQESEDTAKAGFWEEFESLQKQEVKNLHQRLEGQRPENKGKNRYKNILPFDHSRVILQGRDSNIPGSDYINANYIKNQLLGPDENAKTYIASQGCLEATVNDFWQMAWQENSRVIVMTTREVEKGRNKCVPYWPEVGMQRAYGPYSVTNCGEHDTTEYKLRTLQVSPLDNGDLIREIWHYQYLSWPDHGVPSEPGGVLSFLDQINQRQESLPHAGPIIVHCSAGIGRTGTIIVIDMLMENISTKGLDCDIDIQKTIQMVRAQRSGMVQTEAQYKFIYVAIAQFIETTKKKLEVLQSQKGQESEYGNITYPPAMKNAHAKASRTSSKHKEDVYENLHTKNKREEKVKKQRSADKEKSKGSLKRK
Sequence of LAR (P10586 30-1907): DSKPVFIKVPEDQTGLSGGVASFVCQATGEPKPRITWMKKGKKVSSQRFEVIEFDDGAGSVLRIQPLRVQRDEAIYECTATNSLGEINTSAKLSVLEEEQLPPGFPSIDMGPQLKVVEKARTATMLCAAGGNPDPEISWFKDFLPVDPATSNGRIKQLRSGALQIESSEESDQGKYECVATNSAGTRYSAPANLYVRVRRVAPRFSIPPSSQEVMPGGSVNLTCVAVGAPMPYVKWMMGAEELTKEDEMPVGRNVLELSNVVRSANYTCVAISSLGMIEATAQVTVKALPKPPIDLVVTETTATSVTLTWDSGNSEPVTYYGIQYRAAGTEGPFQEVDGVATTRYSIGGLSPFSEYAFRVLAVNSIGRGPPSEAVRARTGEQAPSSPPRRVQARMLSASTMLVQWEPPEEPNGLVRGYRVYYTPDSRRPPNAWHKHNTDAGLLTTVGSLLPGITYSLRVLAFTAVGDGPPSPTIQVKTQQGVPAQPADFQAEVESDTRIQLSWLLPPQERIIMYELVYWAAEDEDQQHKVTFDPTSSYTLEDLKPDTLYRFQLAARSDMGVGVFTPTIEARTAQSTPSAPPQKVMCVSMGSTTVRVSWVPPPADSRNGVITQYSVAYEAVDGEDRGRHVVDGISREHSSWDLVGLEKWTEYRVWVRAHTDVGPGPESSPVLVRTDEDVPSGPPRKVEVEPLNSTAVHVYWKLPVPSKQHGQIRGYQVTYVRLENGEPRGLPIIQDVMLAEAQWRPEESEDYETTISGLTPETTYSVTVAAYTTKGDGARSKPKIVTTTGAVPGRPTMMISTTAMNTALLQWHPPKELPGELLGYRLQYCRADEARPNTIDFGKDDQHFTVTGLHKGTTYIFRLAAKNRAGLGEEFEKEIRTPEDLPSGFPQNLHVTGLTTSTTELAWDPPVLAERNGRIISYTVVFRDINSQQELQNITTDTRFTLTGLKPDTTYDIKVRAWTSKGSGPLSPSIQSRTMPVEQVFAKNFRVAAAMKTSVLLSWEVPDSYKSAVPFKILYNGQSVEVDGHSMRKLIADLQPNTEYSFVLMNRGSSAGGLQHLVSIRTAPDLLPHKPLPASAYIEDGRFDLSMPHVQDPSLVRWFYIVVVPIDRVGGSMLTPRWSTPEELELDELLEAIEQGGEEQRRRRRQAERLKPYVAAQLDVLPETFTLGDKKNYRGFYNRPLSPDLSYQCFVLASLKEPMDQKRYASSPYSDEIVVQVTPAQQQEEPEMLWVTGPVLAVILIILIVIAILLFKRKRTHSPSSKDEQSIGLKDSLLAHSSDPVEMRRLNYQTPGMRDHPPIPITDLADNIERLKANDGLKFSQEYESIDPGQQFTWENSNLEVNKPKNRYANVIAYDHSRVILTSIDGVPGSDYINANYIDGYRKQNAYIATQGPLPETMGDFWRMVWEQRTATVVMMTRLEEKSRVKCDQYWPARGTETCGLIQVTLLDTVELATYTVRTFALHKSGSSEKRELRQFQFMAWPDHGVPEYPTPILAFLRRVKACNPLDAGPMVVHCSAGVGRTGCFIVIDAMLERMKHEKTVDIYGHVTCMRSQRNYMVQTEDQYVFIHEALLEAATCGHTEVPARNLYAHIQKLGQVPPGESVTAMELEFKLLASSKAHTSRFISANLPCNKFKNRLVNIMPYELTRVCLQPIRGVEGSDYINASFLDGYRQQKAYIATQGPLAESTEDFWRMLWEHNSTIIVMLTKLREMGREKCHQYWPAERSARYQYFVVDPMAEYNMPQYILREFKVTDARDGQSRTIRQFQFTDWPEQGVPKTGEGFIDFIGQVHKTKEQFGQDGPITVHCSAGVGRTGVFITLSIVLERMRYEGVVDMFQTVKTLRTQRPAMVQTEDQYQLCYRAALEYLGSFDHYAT

| SMILES | IC50 ([1]; read-out: Inhibitory Effect against Phosphatases (IC50) CD45) | IC50 at 24 h [2] | IC50 [3] | IC50 [4] | IC50 [1] | IC50 [5] | IC50 [6] | MIC [7] | MIC [8] | MIC [9] | IC50 ([4]; read-out: Inhibitory Effect against Phosphatases (IC50) SHP1) | IC50 ([5]; read-out: Inhibitory Effect against Phosphatases (IC50) TCPTP) |
| --- | --- | --- | --- | --- | --- | --- | --- | --- | --- | --- | --- | --- |
| CC(=O)c1ccc(NC2=C(Cl)C(=O)c3ccccc3C2=O)cc1 [AACQ, 2-[(4-acetylphenyl)amino]-3-chloronaphthoquinone, reference compound] | 0.29 µM |  |  |  |  |  |  |  |  |  |  |  |
| COc1cc(O)c2cnccc2c1 [Compound 1, 6-methoxy-8-hydroxy-isoquinolin] |  | 76.2 µM | 100 µM | 38.3 µM | 29.7 µM | 197 µM | 182 µM |  |  |  |  |  |
| COc1cc2ccncc2c(O)c1C [Compound 2, 6-methoxy-7-methyl-8-hydroxy-isoquinolin] |  | > 80 µM | > 200 µM | > 200 µM | > 200 µM | > 200 µM | > 200 µM |  |  |  |  |  |
| COc1cc2ccncc2c(O)c1Cc1c(OC)cc2ccncc2c1O [Compound 3, Puniceusine C] |  | 71.3 µM | 21.9 µM | 20.7 µM | 8.4 µM | > 200 µM | 64.5 µM |  |  |  |  |  |
| COc1cc2ccncc2c(O)c1Cc1c(OC)cc(O)c2cnccc12 [Compound 4, Puniceusine D] |  | 11 µM |  | 130 µM | 5.6 µM | > 200 µM | 150 µM | 100 µg/mL (≈ 276 µM) |  |  |  |  |
| COc1cc2ccncc2c(O)c1Cc1c(OC)c(C)c(O)c2cnccc12 [Compound 5, Puniceusine E] |  | > 80 µM | > 200 µM | 145 µM | 103 µM | > 200 µM | 200 µM |  |  |  |  |  |
| COc1cc2ccncc2c(O)c1CC(C)C(=O)O (stereo not drawn) [Compound 6, Puniceusine F] |  | > 80 µM | > 200 µM | 200 µM | > 200 µM | > 200 µM | > 200 µM |  |  |  |  |  |
| COc1cc2ccncc2c2c(C)c(O)c(C)cc12 [Compound 7, Puniceusine G] |  | > 80 µM | > 200 µM | > 200 µM | > 200 µM | > 200 µM | > 200 µM |  |  |  |  |  |
| COc1cc2ccncc2c(O)c1Cc1c(O)cc(O)c(OC)c1C(=O)C(C)=O [Compound 8, Puniceusine H] |  | > 80 µM | > 200 µM | 100 µM | 49 µM | > 200 µM | 180 µM |  |  |  |  |  |
| COc1cc2ccncc2c(O)c1Cc1c(O)cc(O)c2c1[C@@H](C)OC2 [Compound 9, Puniceusine I] |  | > 80 µM | > 200 µM | 41.8 µM | 27.2 µM | 57.7 µM | 68.8 µM |  |  |  |  |  |
| CCC(=O)c1c(C)c(O)c(Cc2c(OC)cc3ccncc3c2O)c(O)c1O [Compound 10, Puniceusine J] |  | > 80 µM | 100 µM | > 200 µM | 30.8 µM | > 200 µM | > 200 µM |  |  |  |  |  |
| COc1cc2ccncc2c(O)c1Cc1c(O)c(OC)c2c(c1O)C(=O)O[C@H]2[C@@H](C)O [Compound 11, Puniceusine K] |  | > 80 µM | > 200 µM | 145 µM | 100 µM | > 200 µM | 190 µM |  |  |  |  |  |
| CCc1cc(O)c(Cc2c(OC)cc3ccncc3c2O)c(=O)o1 [Compound 12, Puniceusine L] |  | > 80 µM | 150 µM | 117 µM | 38.5 µM | > 200 µM | 170 µM |  |  |  |  |  |
| CCc1oc(=O)c(Cc2c(OC)cc3ccncc3c2O)c(O)c1C [Compound 13, Puniceusine M] |  | > 80 µM | 32.6 µM | 40.3 µM | 11.1 µM | > 200 µM | 37.9 µM |  |  |  |  |  |
| CCCCC(CC)COC(=O)CC[n+]1ccc2cc(OC)c(C)c(O)c2c1 (stereo not drawn) [Compound 14, Puniceusine N] |  | > 80 µM | > 200 µM | > 200 µM | 200 µM | > 200 µM | > 200 µM | 100 µg/mL | 100 µg/mL | 100 µg/mL |  |  |
| [Na+].[Na+].[Na+].[O]=[V]([O-])([O-])[O-] [Na3VO4, reference compound] |  |  |  |  |  |  |  |  |  |  | 4.4 µM | 2.4 µM |
